# Data: PubChem BioAssay (NCI)
#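 Method: 48-hour compound exposure of cells in 96-well plates, five concentrations, linear interpolation of endpoints. GI50 = concentration required for 50% inhibition of growth. TGI: concentration producing complete growth inhibition.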 Where a SMILES comes first, the peptide text is derived from it. The star is where a group is joined. Cbz = O=C(OCc1ccccc1)*; Boc = CC(C)(C)OC(=O)*; OSu = O=C1CCC(=O)N1O*; Bn = c1ccc(C*)cc1
# How the values were obtained:
# Assay in all cases: NCI anticancer screen, dose series, 48 h
# 786-0 renal = tested on: 786-0 renal
# OVCAR-3 ovarian = tested on: OVCAR-3 ovarian
# MDA-N = tested on: MDA-N
# A498 renal = tested on: A498 renal
# HL-60(TB) leukemia = tested on: HL-60(TB) leukemia
# PC-3 prostate = tested on: PC-3 prostate
# SF-539 CNS = tested on: SF-539 CNS
# HT29 colon = tested on: HT29 colon
# UO-31 renal = tested on: UO-31 renal
# MDA-MB-231 breast = tested on: MDA-MB-231 breast
# UACC-62 melanoma = tested on: UACC-62 melanoma
# SF-268 CNS = tested on: SF-268 CNS
# HCC-2998 colon = tested on: HCC-2998 colon
# NCI-H522 lung = tested on: NCI-H522 lung
# HOP-92 NSCLC = tested on: HOP-92 NSCLC
SMILES,TGI (786-0 renal) [µM],TGI (OVCAR-3 ovarian) [µM],TGI (MDA-N) [µM],TGI (A498 renal) [µM],TGI (HL-60(TB) leukemia) [µM],TGI (PC-3 prostate) [µM],TGI (SF-539 CNS) [µM],TGI (HT29 colon) [µM],TGI (UO-31 renal) [µM],TGI (MDA-MB-231 breast) [µM],TGI (UACC-62 melanoma) [µM],TGI (SF-268 CNS) [µM],TGI (HCC-2998 colon) [µM],TGI (NCI-H522 lung) [µM],TGI (HOP-92 NSCLC) [µM],GI50 (PC-3 prostate) [µM],GI50 (MDA-MB-231 breast) [µM]
CC1Oc2c(c(=O)oc3ccccc23)[C@@]1(C)CC1C[C@H](C)C(=O)O1 (some centres not stated),33.4,45.3,45.9,> 100,> 100,> 100,64.2,71.5,90.2,> 100,42.4,42.8,56.2,34.2,–,–,–
CC(=O)O[C@H]1/C(=C/c2ccncc2)C[C@H]2[C@@H]3CC=C4C[C@@H](N5CCCC5)CC[C@]4(C)[C@H]3CC[C@]12C,10.3,45.9,–,30.9,26.1,26.6,35,14.1,18.1,35,27.5,30.2,26,34.9,19.8,–,–
CN(C)CCN=C1Nc2ccccc2C(=S)N2CSCC12 (configuration not stated),> 100,> 100,> 100,> 100,–,> 100,–,> 100,> 100,> 100,> 100,> 100,> 100,> 100,–,–,–
COC1=CCC=C(C[C@@H]2NCCc3cc(OC)c(OC)cc32)C1,> 100,> 100,–,> 100,> 100,–,> 100,> 100,> 100,–,> 100,> 100,> 100,> 100,> 100,–,–
CC(=O)NC1=C(NCCN(C)C)C(=O)c2ccccc2C1=O,> 50,> 50,–,–,22.5,–,34.4,38.6,> 50,–,22.1,> 50,> 50,23.8,–,–,–
CC(NC(=O)C(N)CC(=O)O)NC(=O)C1CCC1 (configuration not stated),> 100,> 100,> 100,> 100,–,> 100,> 100,> 100,> 100,> 100,> 100,> 100,–,> 100,–,–,–
C=C(C)[C@@]1(OC(=O)c2cc([N+](=O)[O-])cc([N+](=O)[O-])c2)C[C@@H]2CCCC[C@@H]21,> 100,–,> 100,–,> 100,> 100,> 100,> 100,> 100,> 100,> 100,> 100,> 100,> 100,–,–,–
CC(C)(C)OC(=O)NCCc1cccc2c1oc1c(CCC(=O)O)cccc12,> 100,> 100,–,> 100,> 100,–,> 100,> 100,> 100,–,> 100,> 100,> 100,> 100,> 100,–,–
N#Cc1c(N)[nH]c(=S)c(C#N)c1-c1ccccc1,> 100,> 100,> 100,> 100,> 100,> 100,> 100,> 100,> 100,> 100,> 100,> 100,> 100,> 100,–,–,–
CCOC(=O)C(C)NC(=O)C(C)NC(=O)C(C)NC(=O)C(C)NC(=O)C(C)NC(=O)OCc1ccccc1 (configuration not stated),> 100,> 100,> 100,–,> 100,> 100,> 100,> 100,> 100,> 100,> 100,> 100,> 100,> 100,–,–,–
COC1C=COC2(C)Oc3c(C)c(O)c4c(O)c(c(/C=N/N5CCN(N)CC5)c(O)c4c3C2=O)NC(=O)C(C)=CC=CC(C)C(O)C(C)C(O)C(C)C(OC(C)=O)C1C (configuration not stated),> 100,–,–,> 100,> 100,–,> 100,> 100,> 100,–,> 100,> 100,> 100,78.2,> 100,–,–
COc1cc2cccc(N)c2cc1OC,> 100,> 100,> 100,> 100,> 100,> 100,> 100,> 100,> 100,> 100,> 100,> 100,> 100,> 100,–,–,–
O=C(O)c1ccc(NC(NC(=O)C(C(F)(F)F)C(F)(F)F)(C(F)(F)F)C(F)(F)F)cc1,> 100,–,> 100,> 100,> 100,> 100,> 100,> 100,> 100,–,–,> 100,> 100,–,–,–,–
O=C(O)CCc1ccc2c(c1)C(=O)CC2,> 100,> 100,> 100,> 100,> 100,–,> 100,> 100,> 100,> 100,> 100,> 100,> 100,> 100,–,–,–
CC(C)(C)OC(=O)NC(Cc1ccc(OCc2ccccc2)cc1)C(=O)NC(CCCCNC(=O)OCc1ccccc1)C(=O)ON1C(=O)CCC1=O (configuration not stated) (Boc-Tyr(Bn)-Lys(Cbz)-OSu; configuration not given here),35.7,–,29.9,> 100,49.3,57.7,–,80.2,76.3,81.1,33.2,–,32,–,–,–,–
CC1(C)C(O)C[C@@H](O)[C@@]2(C)C1CC[C@]1(C)C2C[C@@H](O)[C@@H]2C([C@@]3(C)CC[C@@H](C(C)(C)O)O3)CCC21C (some centres not stated),30.1,29.4,–,34.9,> 55,–,27.5,31.6,32.8,–,22.6,32,31.4,27.8,23.5,–,–
CO/N=C(\C(=O)N(C)n1cnnc1)c1csc(NC(c2ccccc2)(c2ccccc2)c2ccccc2)n1,> 10,> 10,> 10,> 10,> 10,> 10,> 10,> 10,> 10,–,–,> 10,> 10,> 10,> 10,–,–

SMILES,TGI (786-0 renal) [µM],TGI (OVCAR-3 ovarian) [µM],TGI (MDA-N) [µM],TGI (A498 renal) [µM],TGI (HL-60(TB) leukemia) [µM],TGI (PC-3 prostate) [µM],TGI (SF-539 CNS) [µM],TGI (HT29 colon) [µM],TGI (UO-31 renal) [µM],TGI (MDA-MB-231 breast) [µM],TGI (UACC-62 melanoma) [µM],TGI (SF-268 CNS) [µM],TGI (HCC-2998 colon) [µM],TGI (NCI-H522 lung) [µM],TGI (HOP-92 NSCLC) [µM],GI50 (PC-3 prostate) [µM],GI50 (MDA-MB-231 breast) [µM]
CC(SC(=S)N1CCOCC1)C(=O)Nc1nnc(-c2ccccc2)o1 (configuration not stated),> 100,> 100,> 100,> 100,20.5,> 100,> 100,> 100,> 100,> 100,–,–,–,> 100,–,–,–
Cc1ncc2c(=O)c3c(oc2n1)c1ccccc1n3Cc1ccccc1,> 100,> 100,> 100,–,> 100,> 100,> 100,> 100,> 100,> 100,93.9,> 100,> 100,> 100,–,–,–
c1ccc([P+](Cc2ccccc2C[P+](c2ccccc2)(c2ccccc2)c2ccccc2)(c2ccccc2)c2ccccc2)cc1,> 100,> 100,> 100,> 100,> 100,> 100,> 100,> 100,> 100,> 100,> 100,> 100,> 100,> 100,–,–,–
CCc1c(Cc2[nH]c(Cc3[nH]c(C=O)c(C)c3CC)c(CC)c2CC)[nH]c(C=O)c1C,> 100,> 100,–,–,> 100,–,> 100,> 100,> 100,–,> 100,> 100,> 100,> 100,–,–,–
[O-][n+]1ccccc1S,> 100,2.78,–,> 100,–,> 100,> 100,2.32,> 100,> 100,29.6,> 100,> 100,5.14,> 100,3.61,6.73
O=C(CSc1nc2[nH]ncc2c(=O)[nH]1)c1ccc(Cl)cc1,> 100,> 100,> 100,–,–,> 100,> 100,> 100,> 100,> 100,> 100,> 100,> 100,> 100,–,–,–
Oc1ccc(N=C2CCC(=C(c3ccccc3)c3ccc(Nc4ccc(O)cc4)cc3)CC2)cc1,> 100,–,–,> 100,–,> 100,> 100,> 100,> 100,> 100,> 100,> 100,> 100,> 100,> 100,–,–
CCCCC(Sc1cc(Cl)c(C)cc1S(=O)(=O)Nc1n[nH]c(N)n1)C(=O)OC (configuration not stated),> 10,> 10,> 10,> 10,> 10,> 10,> 10,> 10,–,> 10,> 10,> 10,> 10,> 10,–,–,–
CCN1C(=O)C(C)S/C1=N\NC(=O)CSc1nc2ccccc2c(=O)n1CC (configuration not stated),> 100,> 100,> 100,> 100,> 100,> 100,> 100,–,> 100,> 100,> 100,> 100,> 100,> 100,–,–,–
C[n+]1c(-c2ccc(/C=N/NC(=O)C(=O)N/N=C/c3ccc(-c4cn5ccsc5[n+]4C)cc3)cc2)cn2ccsc21,> 100,–,> 100,–,> 100,> 100,> 100,> 100,> 100,> 100,–,> 100,> 100,> 100,–,–,–
CC1=CC[C@@]2(CO)[C@@H]([C@@H]1C)[C@H]1CC[C@@H]3[C@@]4(C)CC[C@H](O)C(C)(C)[C@@H]4CC[C@@]3(C)[C@]1(C)C[C@@H]2O,> 100,> 100,> 100,58.8,> 100,> 100,–,> 100,> 100,–,> 100,> 100,–,42.8,44,–,–
CC(=O)OC1CCCn2c1nc1c2C(=O)C(C)=C(N2CC2)C1=O (configuration not stated),1.65,1.39,–,0.36,14.6,–,1.43,0.645,5.07,–,0.77,1.05,0.722,0.636,54.6,–,–
N#C/C(C(=O)Nc1ccc(Cl)cc1)=C(/N)N1CCCCC1,> 100,> 100,> 100,> 100,> 100,> 100,> 100,–,> 100,–,> 100,–,> 100,–,> 100,–,–
CC(=O)CSc1c(-c2ccccc2)c(=O)n(-c2ccccc2)c(=S)n1-c1ccccc1,> 100,> 100,> 100,–,> 100,> 100,–,> 100,> 100,–,> 100,> 100,–,> 100,> 100,–,–
C=C[C@@H]1C[C@]2(C(=O)OC)Cc3nc4ccccc4nc3CC(C(=O)OC)=C2O1,> 100,> 100,> 100,> 100,> 100,> 100,> 100,> 100,–,> 100,> 100,> 100,–,> 100,–,–,–
Nc1cc(N2CCCC2)nc(=O)n1-c1ccccc1,> 100,–,–,–,> 100,> 100,> 100,> 100,–,> 100,–,–,75.6,> 100,> 100,–,–
C1=C(c2ccccc2)Nc2nnnn2C1c1ccccc1 (configuration not stated),> 100,> 100,> 100,> 100,64.4,> 100,81,41.5,> 100,> 100,> 100,> 100,–,69.8,–,–,–
